From article PMC5107956 (2016)

Tests used:
Assay in all cases: fluorescent intercalator displacement (thiazole orange)
Details in all cases: 50 mM KCl, 10 mM potassium cacodylate (60 mM K+); pH 7.4, room temperature; thiazole orange 0.625 μM displaced; DNA 0.25 μM; DMSO stocks
[1] = test system: HTelo (DNA, G4) AGGGTTAGGGTTAGGGTTAGGG
[2] = test system: c-Myc (DNA, G4) GGGAGGGTGGGGAGGGTGGG
[3] = test system: KRAS m(1:5:1) (DNA, G4) GGGAGGGAAGGAGGGAGGG
[4] = test system: ds26 (DNA, duplex) CAATCGGATCGAATTCGATCCGATTG
[5] = test system: hTERT (DNA, G4) GGGGAGGGGCTGGGAGGGCCC
[6] = test system: HIF1α (HIF1) (DNA, G4) CGGGGAGGGGAGAGGGGGCGGGA
[7] = test system: c-Kit (c-Kit21) (DNA, G4) CGGGCGGGCGCGAGGGAGGGG
[8] = test system: VEGF (VEGF22) (DNA, G4) CGGGGCGGGCCGGGGGCGGGGT
[9] = test system: KRAS m(1:9:1) (DNA, G4) GGGAGGGAAGGAGGGAGGGAGGG

With `O=C(N/N=C/c1ccc(O)cc1[O-])N(Cc1ccccc1)Cc1ccccc1.[Cu+2].c1ccncc1` the DC50 [1] was 1.01 (0.03) μM, the DC50 [2] was 7.15 (0.17) μM and the DC50 [3] was 2.28 (0.10) μM. For the same molecule, the DC50 [4] was 9.91 (0.55) μM, the DC50 [5] was 10.51 (0.61) μM and the DC50 [6] was 10.20 (0.54) μM. The DC50 [7] was 3.58 (0.28) μM, the DC50 [8] was 11.58 (0.41) μM and the DC50 [9] was 2.35 (0.09) μM.
